From article PMC11322497 (Frontiers in Pharmacology, 2024)

System: high fat diet (HFD) rabbit model of metabolic-associated steatohepatitis (MASH)
Experiment: HFD rabbit study, prolonged 4-week treatment: liver histomorphology and immunohistochemistry
Type: in vivo, New Zealand White rabbits
Details: weeks 9–12; for Ballooning score 0 (no ballooning), share of animals / Ballooning score 1 (few ballooned cells), share of animals / Ballooning score 2 (prominent ballooning), share of animals / Fibrosis (Ishak Score) 0, share of animals / Fibrosis (Ishak Score) 1, share of animals / Fibrosis (Ishak Score) 2, share of animals / Fibrosis (Ishak Score) 3, share of animals / Fibrosis (Ishak Score) 4, share of animals / Fibrosis (Ishak Score) 5, share of animals / Inflammation score 0 (no foci), share of animals / Inflammation score 1 (<2 foci), share of animals / Inflammation score 2 (2–4 foci), share of animals / Inflammation score 3 (> 4 foci), share of animals: n=7
Procedure: After 1 week (W) of RD, the animals (n = 44) were randomly assigned to the following groups (Table 1B): • Control rabbits continued to receive a RD for 12 weeks and were treated with vehicle for 5 days a week (days 1–5, p.o.) during the last 4 weeks before culling (RD + 4W Veh group); • Rabbits received a HFD for 8 weeks and were culled (HFD 8W group); • Rabbits received a HFD for 12 weeks and were treated with vehicle for 5 days a week (days 1–5, p.o.) during the last 4 weeks before culling (HFD+4W Veh group); • Rabbits received a HFD for 12 weeks and were treated with GB1211 (0.3 mg/kg) for 5 days a week (days 1–5, p.o.) during the last 4 weeks before culling (HFD + 4W 0.3 mg group); • Rabbits received a HFD for 12 weeks and were treated with GB1211 (1.0 mg/kg) for 5 days a week (days 1–5, p.o.) during the last 4 weeks before culling (HFD + 4W 1.0 mg group); • Rabbits received a HFD for 12 weeks and were treated with GB1211 (5.0 mg/kg) for 5 days a week (days 1–5, p.o.) during the last 4 weeks before culling (HFD + 4W 5.0 mg group).
Liver specimens were fixed in 10% buffered formalin (Sigma-Aldrich Corp., St. Louis, MO), paraffin embedded and sectioned at a thickness of 5 μm with a microtome. The slides were stained with hematoxylin and eosin (H&E; both Bio-Optica, Milan, Italy), following standard protocols for histological analysis, to evaluate the general morphology and tissue structure, and then analyzed to evaluate inflammation and […] using Giemsa and Masson’s trichrome staining, respectively. Briefly, deparaffinized and rehydrated sections were incubated with Giemsa (Bio-Optica) in distilled water at ratio 1:1 or with Masson’s trichrome (Bio-Optica), following the manufacturer’s instructions, as previously described ([Vignozzi et al., 2014]). To evaluate lipid accumulation, liver specimens were also cryosectioned at a thickness of 8 μm, fixed with 4% paraformaldehyde, treated for 2–5 min with isopropanol and stained with Oil Red O (Bio-Optica) for 20 min, following the manufacturer’s instructions.
In liver, collagen content evaluation for fibrosis grade and quantification was conducted by staining using Picrosirius Red Stain kit (Bio-Optica), as per manufacturer’s instructions. Briefly, deparaffinized and rehydrated sections were incubated with the staining solution for 50 min, rinsed with the appropriate reagents and with distilled water, dehydrated through ascending alcohols and xylene, and mounted, as previously described ([Comeglio et al., 2017]).
The expression of RAM11, galectin-3, and vimentin was evaluated by immunohistochemical analysis on 5 μm thick paraffin embedded liver sections. Briefly, deparaffinized and rehydrated sections were incubated overnight at 4°C with mouse monoclonal anti-RAM11 (1:80; Dako, Carpenteria, CA), mouse monoclonal anti-galectin-3 (1:100; Abcam, Cambridge, United Kingdom) or mouse monoclonal anti-vimentin (1:800; Santa Cruz Biotechnology, Dallas, TX) antibodies, followed by biotinylated anti-mouse secondary antibody (Millipore, Burlington, MA) and streptavidin-peroxidase complex (Millipore). The reaction product was developed with 3′,3′-diaminobenzidine tetrahydrochloride as chromogen (Merck KgaA, Darmstadt, Germany). Negative controls were performed avoiding primary antibody. Percentage of the sampled area for galectin-3 and vimentin staining was obtained on ×200 and ×40 original magnification slides, respectively, using ImageJ software on five fields for each slide. Semi-quantitative staining of percentage of the sampled area for Picrosirius Red, Oil Red O, galectin-3 and vimentin was obtained using open source Java-based ImageJ software (Fiji bundle, https://imagej.net/). All slides were evaluated blindly and photographed using a Nikon Microphot-FXA microscope (Nikon, Tokyo, Japan).

OC[C@H]1O[C@H](Sc2cncc(Br)c2)[C@H](O)[C@@H](n2cc(-c3cc(F)c(F)c(F)c3)nn2)[C@H]1O [selvigaltin]
Picrosirius Red percentage of fibrosis area (HFD rabbits, 0.3 mg and 5.0 mg dosages): only partially counteracted
Ballooning score 0 (no ballooning), share of animals (HFD rabbits, 0.3 mg/kg p.o.): 0.0%
Ballooning score 1 (few ballooned cells), share of animals (HFD rabbits, 0.3 mg/kg p.o.): 42.9%
Ballooning score 2 (prominent ballooning), share of animals (HFD rabbits, 0.3 mg/kg p.o.): 57.1%
Fibrosis (Ishak Score) 0, share of animals (HFD rabbits, 0.3 mg/kg p.o.): 0.0%
Fibrosis (Ishak Score) 1, share of animals (HFD rabbits, 0.3 mg/kg p.o.): 14.3%
Fibrosis (Ishak Score) 2, share of animals (HFD rabbits, 0.3 mg/kg p.o.): 0.0%
Fibrosis (Ishak Score) 3, share of animals (HFD rabbits, 0.3 mg/kg p.o.): 57.1%
Fibrosis (Ishak Score) 4, share of animals (HFD rabbits, 0.3 mg/kg p.o.): 28.6%
Fibrosis (Ishak Score) 5, share of animals (HFD rabbits, 0.3 mg/kg p.o.): 0.0%
Inflammation score 0 (no foci), share of animals (HFD rabbits, 0.3 mg/kg p.o.): 14.3%
Inflammation score 1 (<2 foci), share of animals (HFD rabbits, 0.3 mg/kg p.o.): 42.8%
Inflammation score 2 (2–4 foci), share of animals (HFD rabbits, 0.3 mg/kg p.o.): 42.8%
Inflammation score 3 (> 4 foci), share of animals (HFD rabbits, 0.3 mg/kg p.o.): 0.0%
Ballooning score 0 (no ballooning), share of animals (HFD rabbits, 1.0 mg/kg p.o.): 0.0%
Ballooning score 1 (few ballooned cells), share of animals (HFD rabbits, 1.0 mg/kg p.o.): 85.7%
Ballooning score 2 (prominent ballooning), share of animals (HFD rabbits, 1.0 mg/kg p.o.): 14.3%
Fibrosis (Ishak Score) 0, share of animals (HFD rabbits, 1.0 mg/kg p.o.): 0.0%
Fibrosis (Ishak Score) 1, share of animals (HFD rabbits, 1.0 mg/kg p.o.): 0.0%
Fibrosis (Ishak Score) 2, share of animals (HFD rabbits, 1.0 mg/kg p.o.): 85.7%
Fibrosis (Ishak Score) 3, share of animals (HFD rabbits, 1.0 mg/kg p.o.): 14.3%
Fibrosis (Ishak Score) 4, share of animals (HFD rabbits, 1.0 mg/kg p.o.): 0.0%
Fibrosis (Ishak Score) 5, share of animals (HFD rabbits, 1.0 mg/kg p.o.): 0.0%
Inflammation score 0 (no foci), share of animals (HFD rabbits, 1.0 mg/kg p.o.): 14.3%
Inflammation score 1 (<2 foci), share of animals (HFD rabbits, 1.0 mg/kg p.o.): 71.4%
Inflammation score 2 (2–4 foci), share of animals (HFD rabbits, 1.0 mg/kg p.o.): 14.3%
Inflammation score 3 (> 4 foci), share of animals (HFD rabbits, 1.0 mg/kg p.o.): 0.0%
Liver steatosis (Oil Red O staining) (HFD rabbits, 1.0 mg/kg, not significantly different from controls): mild beneficial effect
Picrosirius Red percentage of fibrosis area (HFD rabbits, 1.0 mg/kg, p < 0.05 vs. HFD + Veh): normalized
Vimentin positivity in liver (HFD rabbits, 1.0 mg/kg, p = 0.072 vs. HFD + Veh): borderline reduction
Ballooning score 0 (no ballooning), share of animals (HFD rabbits, 5.0 mg/kg p.o.): 0.0%
Ballooning score 1 (few ballooned cells), share of animals (HFD rabbits, 5.0 mg/kg p.o.): 57.1%
Ballooning score 2 (prominent ballooning), share of animals (HFD rabbits, 5.0 mg/kg p.o.): 42.9%
Fibrosis (Ishak Score) 0, share of animals (HFD rabbits, 5.0 mg/kg p.o.): 0.0%
Fibrosis (Ishak Score) 1, share of animals (HFD rabbits, 5.0 mg/kg p.o.): 0.0%
Fibrosis (Ishak Score) 2, share of animals (HFD rabbits, 5.0 mg/kg p.o.): 42.8%
Fibrosis (Ishak Score) 3, share of animals (HFD rabbits, 5.0 mg/kg p.o.): 42.8%
Fibrosis (Ishak Score) 4, share of animals (HFD rabbits, 5.0 mg/kg p.o.): 14.3%
Fibrosis (Ishak Score) 5, share of animals (HFD rabbits, 5.0 mg/kg p.o.): 0.0%
Inflammation score 0 (no foci), share of animals (HFD rabbits, 5.0 mg/kg p.o.): 0.0%
Inflammation score 1 (<2 foci), share of animals (HFD rabbits, 5.0 mg/kg p.o.): 100.0%
Inflammation score 2 (2–4 foci), share of animals (HFD rabbits, 5.0 mg/kg p.o.): 0.0%
Inflammation score 3 (> 4 foci), share of animals (HFD rabbits, 5.0 mg/kg p.o.): 0.0%
Liver steatosis (Oil Red O staining) (HFD rabbits, 0.3, 1.0, 5.0 mg/kg): without significant differences among HFD groups
Galectin-3 immunohistochemical positivity in liver (HFD rabbits, all selvigaltin treatments (0.3, 1.0, 5.0 mg/kg)): only partially abated
